Experimental data from patent US20250387348A1, “NEPHROPROTECTIVE USEFUL AGENT” (WATANABE OYSTER LABORATORY, CO., LTD., priority 2022, published 2025).

Experiments:
[1] = tested on: human renal proximal tubular cells HK-2; assay: LDH cytotoxicity test under BSO oxidative stress; type: cell-based; settings: 48 hours
Procedure: (§1) Human renal proximal tubular cells (HK-2) were subcultured using Dulbecco's Modified Eagle's Medium (DMEM, NACALAI TESQUE, INC.) containing 10% fetal bovine serum and 1% penicillin-streptmycin in a 5% CO2 incubator at 37° C.
(§2) In order to confirm the cytoprotective action of DHMBA on human renal proximal tubular cells HK-2 against oxidative stress, an oxidative stress inducer buthionine sulfoximine (BSO) was used to assess the toxicity and viability of the cells.
(§3) Specifically, the HK-2 cells were seeded into a 96-well plate to be 3.0×10^3 cells/well and cultured for 24 hours.
(§4) Next, BSO and DHMBA were added in an amount of 150 μL/well to have a final concentration of BSO of 100 μM and a final concentration of DHMBA of 1 μM to 500 μM. […] After the plate was allowed to stand for 30 minutes at room temperature, the absorbance at 490 nm was measured using a plate reader (Wallac 1420 ARVO Mx plate reader, PerkinElmer) to measure the cytotoxicity. In addition, a CCK-8 reagent (DOJINDO LABORATORIES) was added in an amount of 10 μL/well to the plate where the cells had been cultured, and after two hours of culture at 37° C., the absorbance at 450 nm was measured using a plate reader (Wallac 1420 ARVO Mx plate reader) to assess the viability of the cells. The toxicity and viability of the cells were calculated from the absorbance value relative to the control (0 μg/mL) (n=5 to 6 for each group).

[2] = tested on: human renal proximal tubular cells HK-2; assay: CCK-8 cell viability test under BSO oxidative stress; type: cell-based; settings: 48 hours
Procedure: as §1, §2, §3, §4

[3] = tested on: intracellular ROS in HK-2 cells; assay: Intracellular ROS production level (DCFDA staining); type: cell-based, human; settings: 24 hours
Procedure: The production level of intracellular ROS was measured to assess changes in intracellular ROS by DHMBA under oxidative stress stimulation.
The HK-2 cells were seeded into a black 96-well plate to be 3.0×10^3 cells/well and cultured for 24 hours. Next, BSO and DHMBA were added in an amount of 100 μL/well to have a final concentration of BSO of 100 μM and a final concentration of DHMBA of 250 μM and 500 μM. After 24 hours, a supernatant was removed, a DCFDA reagent (Sigma) diluted to 25 μM with serum-free DMEM was added in an amount of 100 μL/well, and the cells were cultured at 37° C. for 40 minutes. Furthermore, after the cells were washed with PBS, PBS was added in an amount of 100 μL/well, and fluorescence was measured using a plate reader (Wallac 1420 ARVO Mx plate reader) at an excitation wavelength of 485 nm and a fluorescence wavelength of 535 nm (n=6 for each group) and observed and photographed with a fluorescence microscope BZ-9000 (Keyence).

[4] = tested on: intramitochondrial ROS in HK-2 cells; assay: Intramitochondrial ROS production level (DHR123 staining); type: cell-based, human; settings: 24 hours
Procedure: In order to verify the effect of DHMBA on the production of intramitochondrial ROS promoted by oxidative stress stimulation, the observation and measurement of fluorescence intensity of intramitochondrial ROS were performed using DHR123.
The HK-2 cells were seeded into a black 24-well plate to be 2.0×10^4 cells/well and cultured for 24 hours. Next, BSO and DHMBA were added in an amount of 500 μL/well to have a final concentration of BSO of 100 μM and a final concentration of DHMBA of 250 μM and 500 μM. After 24 hours, a supernatant was removed, a DHR123 reagent (FUJIFILM Wako Pure Chemical Corporation) diluted to 5 μM with serum-free DMEM was added in an amount of 250 μL/well, and the cells were cultured at 37° C. for 40 minutes.
Furthermore, after the cells were washed with PBS, 500 μL of PBS was added, observation was performed, and photos were taken using a fluorescence microscope BZ-9000 (Keyence). Then, after the cells were peeled from the bottom with a scraper and pipetted sufficiently, an amount of 200 μL/well was moved to a black 96-well plate, and fluorescence was measured using a plate reader (Wallac 1420 ARVO Mx plate reader) at an excitation wavelength of 505 nm and a fluorescence wavelength of 534 nm (n=6 for each group).

[5] = tested on: BIK and ENDOG genes in HK-2 cells; assay: qPCR expression of cell and mitochondrial damage-related genes; type: cell-based, human; settings: 24 hours
Excerpt: Under oxidative stress stimulation, ENDOG that resides in a mitochondrion migrates to the nucleus and acts on nuclear DNA fragmentation. In addition, when nuclear DNA is damaged, BIK increases and acts with intramitochondrial factors, inducing apoptosis, a type of cell death (Li L Y, et al., Nature, 412:95-99, 2001; Kutuk O, et al., PLOS One, 12: e0182809, 2017).
Therefore, in the present invention, the effect of DHMBA on cell death markers BIK and ENDOG, which increase under oxidative stress stimulation, was verified.
The HK-2 cells were seeded into a 6-well plate to be 5.0×10^4 cells/well and cultured for 24 hours. Next, BSO and DHMBA were added in an amount of 2 mL/well to have a final concentration of BSO of 100 μM and a final concentration of DHMBA of 250 μM and 500 μM. After 24 hours, total RNA extraction was recovered using a NucleoSpin (registered trademark) RNA kit (MACHEREY-NAGEL). The concentration of purified RNA was quantified by the Nanodrop (Invitrogen). From 1.0 μg of total RNA, cDNA was synthesized according to the protocol of ReverTra ACE (registered trademark) qPCR RT Master Mix with gDNA Remover (TOYOBO). The gene expression levels were measured according to the protocol of THUNDERBIRD (registered trademark) SYBR (registered trademark) qPCR Mix (TOYOBO). The measurement was performed using the CFX Connect™ Real-Time PCR Detection System (BioRad), and analysis was performed by the 2^−(ΔΔCT) method.
A comparison was performed with the gene expression level of the control group as 1. The figure was expressed as a mean value±SD (n=4 for each group). Each expression level was corrected by the expression level of β-actin, which is a housekeeping gene.

[6] = tested on: PPARα/PGC1α/NRF1/TFAM pathway genes in HK-2 cells; assay: qPCR expression of mitochondrial biosynthesis-related genes; type: cell-based, human; settings: co-treatment with 100 μM BSO, DHMBA 250 μM and 500 μM
Procedure: It has been reported that mitochondrial biosynthesis is regulated through activation of the PPARα/PGC1α/NRF1/TFAM pathway (Uittenbogaard M and Chiaramello A, Current pharmaceutical design, 20:[…], 2014).
(§5) The expression levels of genes related to mitochondrial biosynthesis were measured in a similar manner to that described above. A comparison was performed with the control group as 1. The figure was expressed as a mean value±SD (n=3 for each group). Each expression level was corrected by the expression level of β-actin.

[7] = tested on: mitochondria of HK-2 cells; assay: Mitochondrial morphology observation (MitoTracker Green FM / Hoechst 33342); type: cell-based, human; settings: 24 hours
Procedure: Excessively produced ROS induces mitochondrial fission, causing mitochondrial fragmentation and dysfunction (Zorov D, et al., Cells, 8:175, 2019). In order to observe whether or not DHMBA influences mitochondrial morphological changes under oxidative stress stimulation, double staining of mitochondria and nuclei was performed using MitoTracker (registered trademark) Green FM (Thermo Fisher Scientific), which reacts to mitochondrial membrane potential differences, and Hoechst 33342 (DOJINDO LABORATORIES), which binds to nuclear DNA.
The HK-2 cells were seeded into 35 mm dishes to be 5.0×10^4 cells/dish and cultured for 24 hours. Next, BSO and DHMBA were added in an amount of 2 mL/well to have a final concentration of BSO of 100 μM and a final concentration of DHMBA of 250 μM and 500 μM. After 24 hours, a mixed solution of 0.1 μM MitoTracker (registered trademark) Green FM and 5 μg/mL Hoechst 33342 was added in an amount of 2 mL/dish, and the cells were cultured at 37° C. for 20 minutes and washed with PBS. Afterwards, 1 mL of PBS was added, and fluorescence images were obtained at 100 times using a fluorescence microscope BZ-9000 (Keyence).

[8] = tested on: OPA1, DRP1 and FIS1 genes in HK-2 cells; assay: qPCR expression of mitochondrial fusion- and fission-related genes; type: cell-based, human; settings: co-treatment with 100 μM BSO, DHMBA 250 μM and 500 μM
Procedure: as §5, with “fusion (OPA1) and genes related to fission (DRP1 and FIS1)” for “biosynthesis”, “(n=4” for “(n=3”

[9] = tested on: mitochondria of HK-2 cells; assay: Mitochondrial respiration capacity (oxygen consumption rate, extracellular flux analyzer XFp); type: cell-based, human
Procedure: The action of DHMBA improving mitochondrial respiration capacity under oxidative stress was examined using an extracellular flux analyzer XFp (Agilent Technologies).
The HK-2 cells were seeded into the XFp Cell Culture Miniplate (Agilent Technologies) to be 1.5×10^4 cells/well and cultured for 24 hours. Next, BSO and DHMBA were added in an amount of 200 μL/well to have a final concentration of BSO of 100 μM and a final concentration of DHMBA of 250 μM and 500 μM. After 24 hours of culture, the culture medium was replaced with a running culture medium (XF DMEM Medium, pH 7.4, Agilent Technologies) containing 20 mM GlutaMAX (Gibco), 10 mM Pyruvate (Gibco), and glucose (10 mM), and the cells were cultured for one hour in an incubator at 37° C. without CO2 control. A 24-hour hydrated calibration plate was placed on an extracellular flux analyzer XFp and calibrated. After the calibration was completed, the calibration plate and the cell plate were exchanged, and the oxygen consumption rate (OCR) was measured. The basal respiration rate was measured first, and subsequently, oligomycin (final concentration: 2 μM) was added to inhibit ATP production. Next, FCCP (final concentration: 1 μM) was added, and the maximal respiration rate was measured. Finally, rotenon/antimycin A (final concentration: 0.25 μM) was added, and the respiration rate independent of mitochondria was measured. Each measurement was performed three times for all measurements.

Keap1-Nrf2 pathway = settings: cited from earlier work
[10] = co-treatment with 100 μM BSO, DHMBA 250 μM and 500 μM
[11] = 100 μM BSO and 500 μM DHMBA, 24 hours, OCR
[12] = 100 μM BSO alone (oxidative stress stimulation)

## COc1c(O)cc(CO)cc1O [DHMBA, 3,5-dihydroxy-4-methoxybenzyl alcohol]
[1]; co-treatment with 100 μM BSO, DHMBA 1 μM to 500 μM
  DHMBA concentration that inhibited cytotoxicity: ≥ 3.9 µM
[2]; co-treatment with 100 μM BSO, CCK-8, DHMBA 1 μM to 500 μM
  DHMBA concentration that increased cell viability: ≥ 3.9 µM
[3]; [10]
  production level of intracellular ROS: decreased to the same level as that of the control group
[4]; [10]
  accumulation of intramitochondrial ROS: inhibited
[5]; [10]
  expression level of BIK gene: decreased to the same levels as those of the control group
  expression level of ENDOG gene: decreased to the same levels as those of the control group
[6]
  expression level of PGC1α: increased
  expression level of TEAM: increased
[7]; [10]
  mitochondrial fragmentation (morphology): fragmented mitochondria decreased
[8]
  expression level of FIS1: reduced
[9]; [11]
  mitochondrial ATP production: increased
  mitochondrial basal respiration: increased
  mitochondrial maximal respiration: increased
Keap1-Nrf2 pathway; earlier finding, background art
  cytotoxicity compared with existing antioxidant substances: less cytotoxic than existing antioxidant substances
Keap1-Nrf2 pathway; literature (Fuda 2015; Joko 2017)
  activation of radical scavenging ability and the Keap1-Nrf2 pathway, expression induction of antioxidant gene clusters (such as HO-1 and NQO1): confirmed

## CCCCS(=N)(=O)CCC(N)C(=O)O (centres unmarked) [BSO, buthionine sulfoximine, reference compound]
[1]; 100 μM BSO alone (0 μM DHMBA)
  cytotoxicity: strong cytotoxicity
[2]; 100 μM BSO alone (0 μM DHMBA), CCK-8
  cell viability: low cell viability
[3]; 100 μM BSO alone
  intracellular ROS: increase in intracellular ROS
[4]; 100 μM BSO alone
  ROS accumulation in mitochondria: ROS accumulation in mitochondria was also observed
[5]; [12]
  expression level of BIK gene: increased
  expression level of ENDOG gene: increased
[7]; [12]
  mitochondrial fragmentation (morphology): mitochondrial fragmentation was induced
[9]; 100 μM BSO alone, 24-hour addition
  damage to mitochondrial functions (OCR): not recognized
